Legend:
[1] = tested on: confirmed carriers of the HD gene mutation; assay: Creatine HCl in patients having HD gene mutation (clinical neurological assessment, MRI); type: in vivo, human; conditions: 10 to 12 grams/day
Method: Patients were confirmed carriers of the HD gene mutation at early stage 1 progression. Each patient was instructed to take 10 to 12 grams/day of creatine HCl. Neurological progression of disease was monitored quarterly as were full blood chemistry profiles. Assessment of neurological progression using magnetic resonance imaging (MRI) was also performed at a minimum of once a year.

Relative bioavailability = conditions: in vivo
[2] = cited from earlier work

| SMILES | progression of disease (clinical neurological assessments or MRI) ([1]; 3.5 years, early stage 1 carriers) | onset of the disease / symptoms ([1]; over the 3.5 year time period) | relative bioavailability, greater than creatine monohydrate (Relative bioavailability) | patients unable to tolerate the maximum dose ([2]; 30 g daily) | those on placebo unable to tolerate the maximal dose when they switched to it ([2]; maximal dose 30 g daily) [%] |
| --- | --- | --- | --- | --- | --- |
| CN(CC(=O)O)C(=N)N.Cl [creatine HCl, creatine hydrochloride] | no progression of disease | no symptoms | at least 50% |  |  |
| CN(CC(=O)O)C(=N)N.O [creatine monohydrate] |  |  |  | about one-third | 13 |

Reference: patent US10245245B2, “Compositions and methods for neuroprotection and treatment of neurodegeneration” (Vireo Systems, Inc., priority 2015, dated 2019)
